Calls of active or inactive are those of the source. The calls are words filed in the database; no cut-off is given here.
Columns and labels:
[1] = target: T1, Serine/threonine-protein kinase DCLK1 (Homo sapiens, UniProt O15075); experiment: Inhibition of DCLK1 (unknown origin) in presence of 33P-ATP
T1 sequence (O15075 whole entry): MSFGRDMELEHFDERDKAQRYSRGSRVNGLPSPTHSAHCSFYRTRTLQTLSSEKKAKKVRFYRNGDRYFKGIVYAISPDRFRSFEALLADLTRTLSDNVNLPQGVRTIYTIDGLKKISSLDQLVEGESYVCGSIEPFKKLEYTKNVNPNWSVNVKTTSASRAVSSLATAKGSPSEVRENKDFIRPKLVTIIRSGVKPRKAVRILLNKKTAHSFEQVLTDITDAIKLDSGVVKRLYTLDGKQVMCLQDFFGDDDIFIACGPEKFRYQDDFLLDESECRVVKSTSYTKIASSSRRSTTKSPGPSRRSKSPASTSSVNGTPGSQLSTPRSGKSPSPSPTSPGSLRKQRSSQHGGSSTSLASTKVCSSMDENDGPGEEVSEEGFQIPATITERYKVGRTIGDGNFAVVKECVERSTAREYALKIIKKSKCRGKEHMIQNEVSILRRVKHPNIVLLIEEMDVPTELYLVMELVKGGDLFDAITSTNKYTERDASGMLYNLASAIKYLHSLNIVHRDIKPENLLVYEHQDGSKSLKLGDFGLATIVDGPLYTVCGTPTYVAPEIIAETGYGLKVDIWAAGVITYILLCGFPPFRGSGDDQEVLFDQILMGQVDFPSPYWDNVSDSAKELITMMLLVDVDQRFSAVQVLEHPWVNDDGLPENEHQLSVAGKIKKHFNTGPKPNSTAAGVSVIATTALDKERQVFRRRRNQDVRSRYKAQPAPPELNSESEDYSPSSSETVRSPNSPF

[2] = target: T1, Serine/threonine-protein kinase DCLK1; experiment: Inhibition of DCLK1 (unknown origin) preincubated for 10 mins followed by substrate/ATP addition measured after 60 mins by mobility shift assay
[3] = system: SW1990; experiment: Antiproliferative activity against human SW1990 cells assessed as inhibition cell proliferation incubated for 6 days by MTT assay; format: functional, cell-based; settings: SW1990, 144 h
[4] = system: HCT-116; experiment: Antiproliferative activity against human HCT-116 cells assessed as inhibition cell proliferation incubated for 6 days by MTT assay; format: functional, cell-based; settings: HCT-116, 144 h
[5] = system: CAKI-1; experiment: Antiproliferative activity against human CAKI-1 cells assessed as inhibition cell proliferation incubated for 6 days by MTT assay; format: functional, cell-based; settings: CAKI-1, 144 h
[6] = system: SW1990; experiment: Induction of apoptosis in human SW1990 cells assessed as viable cells at 10 uM incubated for 6 days by Annexin V/PI staining based flow cytometry (reference value: 92.93 %); format: functional; settings: SW1990, 144 h, time 6 day, read-out: Activity
[7] = system: SW1990; experiment: Induction of apoptosis in human SW1990 cells assessed as early apoptotic cells at 10 uM incubated for 6 days by Annexin V/PI staining based flow cytometry (reference value: 4.55 %); format: functional; settings: time 6 day
[8] = system: SW1990; experiment: Induction of apoptosis in human SW1990 cells assessed as late apoptotic cells at 10 uM incubated for 6 days by Annexin V/PI staining based flow cytometry (reference value: 2.01 %); format: functional; settings: time 6 day
[9] = system: SW1990; experiment: Induction of apoptosis in human SW1990 cells assessed as necrotic cells at 10 uM incubated for 6 days by Annexin V/PI staining based flow cytometry (reference value: 0.50 %); format: functional; settings: time 6 day
[10] = system: SW1990; experiment: Induction of cell cycle arrest at G0/G1 phase in human SW1990 cells at 10 uM incubated for 6 days by PI staining based flow cytometry (reference value: 49.65 %); format: functional; settings: time 6 day
[11] = system: SW1990; experiment: Induction of cell cycle arrest at S phase in human SW1990 cells at 10 uM incubated for 6 days by PI staining based flow cytometry (reference value: 21.20 %); format: functional; settings: time 6 day
[12] = system: SW1990; experiment: Induction of cell cycle arrest at G2/M phase in human SW1990 cells at 10 uM incubated for 6 days by PI staining based flow cytometry (reference value: 29.15 %); format: functional; settings: time 6 day
[13] = system: SW1990; experiment: Inhibition of cell invasion in human SW1990 cells at 10 uM by transwell assay; format: functional, cell-based
[14] = system: SW1990; experiment: Inhibition of cell migration in human SW1990 cells at 10 uM by transwell assay; format: functional, cell-based
[15] = system: SW1990; experiment: Antitumor activity against human SW1990 cells xenografted in BALB/c nude mouse model assessed as tumor growth inhibition at 60 mg/kg, ip for 21 days consecutively relative to control; format: functional; settings: SW1990, 504 h, time 21 day, read-out: TGI

Row | Compound | IC50 [1] | IC50 [2] | IC50 [3] | IC50 [4] | IC50 [5] | viability at 10 µM [6] | Activity [7] | Activity [8] | Activity [9] | Activity [10] | Activity [11] | Activity [12] | inhibition [13] | inhibition [14] | inhibition in vivo at 60 mg/kg [15]
1 | COc1cc(N2CCN(C)CC2)ccc1Nc1ncc2c(n1)N(C)c1ccccc1C(=O)N2CC(F)(F)F | 0.0572 µM | 0.0379 µM | 14 µM | 6.2 µM | 12.2 µM | 60.6% | 18.23% | 12.13% | 8.99% | 61.36% | 16.89% | 21.75% | Active | Active | 24.8%
2 | COc1ccccc1Nc1nc(Nc2ccccc2S(=O)(=O)C(C)C)c2nc[nH]c2n1 |  | 0.171 µM |  |  |  |  |  |  |  |  |  |  |  |  | 
